{"source": "patent US11815448B2", "about": "“Method, reagent, and chip for measuring analyte concentration in specimen” (TERUMO KABUSHIKI KAISHA, priority 2018, dated 2023)", "assay": "Evaluation of maximum absorption wavelength (λmax)", "assay_type": "physicochemical", "procedure": "A 10 mM MOPS aqueous solution is added so that the final concentrations of the respective formazan compounds are 50 to […] to prepare 100 μL of each sample. Separately, a 1M nickel ion aqueous solution is prepared. To 100 μL of the sample, 10 μL of the 1M nickel ion aqueous solution is added, and the mixture is rapidly stirred to prepare a mixed solution. The spectrum of the mixed solution is measured with a spectrophotometer (measurement cell length: 10 mm) (n=1). Based on each spectrum, the maximum absorption wavelength (λmax) (nm) of each compound in formazan is determined.\nDiethyl ether was added to the reaction solution obtained in 3. above to precipitate the tetrazolium compound 1. The precipitate was centrifuged, and the supernatant was removed, followed by washing with diethyl ether. The obtained precipitate was dried in a draft to obtain tetrazolium compound 1 (120 mg, yield: 11.8% by mass). The maximum absorption wavelength (λmax) of the tetrazolium compound 1 thus obtained was measured and found to be 630 nm.", "note": "Where a name gives a salt, the structure may show the parent alone.", "data": [{"smiles": "COc1ccc2nc(-n3nc(-c4ccc(S(=O)(=O)O)cc4S(=O)(=O)[O-])n[n+]3-c3ccc(OC)c(S(=O)(=O)O)c3)sc2c1", "note": "[tetrazolium compound 1, 2-(6-methoxybenzothiazolyl)-3-(3-sulfo-4-methoxy-phenyl)-5-(2,4-disulfophenyl)-2H-tetrazolium salt]", "values": [{"measurement": "maximum absorption wavelength (λmax)", "value": 630, "unit": "nm"}]}]}
